For 1 compound, IC50 results are on record in PMC5687273 (Cell reports, 2017).

The assay addresses Cdk7^as (Homo sapiens, UniProt P50613, D92E/F91G). Kind of assay: in vitro kinase assay on GST-CTD, autoradiography. The format is biochemical.

Chain of Cdk7^as (P50613 2-346 F91G/D92E): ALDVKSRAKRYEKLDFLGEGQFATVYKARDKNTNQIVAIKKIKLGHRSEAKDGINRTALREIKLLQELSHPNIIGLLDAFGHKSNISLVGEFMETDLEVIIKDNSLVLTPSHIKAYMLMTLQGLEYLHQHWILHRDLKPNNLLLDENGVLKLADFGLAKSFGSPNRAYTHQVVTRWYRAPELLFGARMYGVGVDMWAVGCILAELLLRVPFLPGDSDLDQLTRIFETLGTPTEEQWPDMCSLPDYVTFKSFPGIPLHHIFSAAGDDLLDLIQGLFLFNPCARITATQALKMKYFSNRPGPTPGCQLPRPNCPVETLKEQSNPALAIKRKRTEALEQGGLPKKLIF
Chain of Cdk7^as (P51946 whole entry partner): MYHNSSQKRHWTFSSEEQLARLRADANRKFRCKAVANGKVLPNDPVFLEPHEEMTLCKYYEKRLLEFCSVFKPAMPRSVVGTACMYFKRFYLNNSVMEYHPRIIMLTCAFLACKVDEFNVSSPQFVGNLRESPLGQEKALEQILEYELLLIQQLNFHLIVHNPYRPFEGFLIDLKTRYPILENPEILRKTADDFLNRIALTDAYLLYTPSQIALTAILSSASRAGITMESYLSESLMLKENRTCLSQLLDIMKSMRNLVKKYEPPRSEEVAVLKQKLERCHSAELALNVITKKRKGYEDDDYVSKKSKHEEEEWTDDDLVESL
Chain of Cdk7^as (P51948 whole entry partner): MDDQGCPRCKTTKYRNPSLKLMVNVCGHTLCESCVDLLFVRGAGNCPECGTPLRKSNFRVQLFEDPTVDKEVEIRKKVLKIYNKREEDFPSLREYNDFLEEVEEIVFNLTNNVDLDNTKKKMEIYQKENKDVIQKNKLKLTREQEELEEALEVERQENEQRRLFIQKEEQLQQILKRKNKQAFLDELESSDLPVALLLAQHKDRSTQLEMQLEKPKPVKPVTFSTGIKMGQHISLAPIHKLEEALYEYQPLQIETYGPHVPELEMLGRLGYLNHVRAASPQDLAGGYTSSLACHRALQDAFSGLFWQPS

As a reminder, the IC50 is the midpoint of a concentration-inhibition curve. Read a low IC50 as greater potency in that assay. As for `Cc1cccc(Cc2nn(C(C)(C)C)c3ncnc(N)c23)c1` [3-MB-PP1], the IC50 was about 0.01 µM.
